# Experimental data as given in patent US20250171438A1 (Agios Pharmaceuticals, Inc., priority 2022, published 2025).
# Target: T1, human PAH with the R408W mutation (Homo sapiens, UniProt P00439, R408W)
# T1 construct: expressed in transfected cells
# T1 sequence (P00439 1-452 R408W): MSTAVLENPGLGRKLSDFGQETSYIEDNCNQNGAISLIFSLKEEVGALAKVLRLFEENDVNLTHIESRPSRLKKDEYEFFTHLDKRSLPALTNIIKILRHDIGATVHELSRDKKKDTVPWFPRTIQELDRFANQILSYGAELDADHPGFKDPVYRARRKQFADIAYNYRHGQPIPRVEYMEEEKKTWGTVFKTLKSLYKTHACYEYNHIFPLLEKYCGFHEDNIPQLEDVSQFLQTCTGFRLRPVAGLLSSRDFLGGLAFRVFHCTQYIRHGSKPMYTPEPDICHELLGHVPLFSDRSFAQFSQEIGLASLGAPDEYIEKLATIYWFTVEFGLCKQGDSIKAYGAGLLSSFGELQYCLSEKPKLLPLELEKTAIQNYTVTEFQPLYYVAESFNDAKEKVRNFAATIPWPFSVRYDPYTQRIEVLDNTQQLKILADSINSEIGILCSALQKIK
# Test: Cell Based Phenylalanine Flux Assay
# Conditions: A375 cells expressing human R408W PAH; 24 hrs compound incubation; 13C-Tyrosine by LC-MS; average where tested multiple times; read-out: AC50
row,Structure (SMILES),AC50 [µM]
1,"CC(C)(O)c1nc(C(F)(F)F)c(C(=O)N2CC3(CC3)c3[nH]cnc3[C@H]2c2nc3ccccc3s2)o1 [Example 1679, (S)-(4′-(benzo[d]thiazol-2-yl)spiro[cyclopropane-1,7′-imidazo[4,5-c]pyridin]-5′(1′H,4′H,6′H)-yl)(2-(2-hydroxypropan-2-yl)-4-(trifluoromethyl)oxazol-5-yl)methanone]",0.5 to 1
2,"CC(C)(O)c1nc(C(F)(F)F)c(C(=O)N2CC3(CC3)c3[nH]cnc3[C@@H]2c2nc3ccccc3s2)o1 [Example 1680, (R)-(4′-(benzo[d]thiazol-2-yl)spiro[cyclopropane-1,7′-imidazo[4,5-c]pyridin]-5′(1′H,4′H,6′H)-yl)(2-(2-hydroxypropan-2-yl)-4-(trifluoromethyl)oxazol-5-yl)methanone]",1 to 5
3,"O=C(c1oc(-c2ccccn2)nc1C(F)(F)F)N1CC2(CC2)c2[nH]cnc2[C@H]1c1nc2ccccc2s1 [Example 1681, (S)-(4′-(benzo[d]thiazol-2-yl)spiro[cyclopropane-1,7′-imidazo[4,5-c]pyridin]-5′(1′H,4′H,6′H)-yl)(2-(pyridin-2-yl)-4-(trifluoromethyl)oxazol-5-yl)methanone]",0.5 to 1
4,"O=C(c1oc(-c2ccccn2)nc1C(F)(F)F)N1CC2(CC2)c2[nH]cnc2[C@@H]1c1nc2ccccc2s1 [Example 1682, (R)-(4′-(benzo[d]thiazol-2-yl)spiro[cyclopropane-1,7′-imidazo[4,5-c]pyridin]-5′(1′H,4′H,6′H)-yl)(2-(pyridin-2-yl)-4-(trifluoromethyl)oxazol-5-yl)methanone]",1 to 5
5,"O=C(c1nnc(-c2ccccn2)o1)N1CC2(CC2)c2[nH]cnc2[C@@H]1c1nc2ccccc2s1 [Example 1683, (R)-(4′-(benzo[d]thiazol-2-yl)spiro[cyclopropane-1,7′-imidazo[4,5-c]pyridin]-5′(1′H,4′H,6′H)-yl)(5-(pyridin-2-yl)-1,3,4-oxadiazol-2-yl)methanone]",1 to 5
6,"O=C(c1nnc(-c2ccccn2)o1)N1CC2(CC2)c2[nH]cnc2[C@H]1c1nc2ccccc2s1 [Example 1684, (S)-(4′-(benzo[d]thiazol-2-yl)spiro[cyclopropane-1,7′-imidazo[4,5-c]pyridin]-5′(1′H,4′H,6′H)-yl)(5-(pyridin-2-yl)-1,3,4-oxadiazol-2-yl)methanone]",< 0.5
7,"Cc1nnc(C(=O)N2CC3(CC3)c3[nH]cnc3[C@@H]2c2nc3ccccc3s2)o1 [Example 1685, (R)-(4′-(benzo[d]thiazol-2-yl)spiro[cyclopropane-1,7′-imidazo[4,5-c]pyridin]-5′(1′H,4′H,6′H)-yl)(5-methyl-1,3,4-oxadiazol-2-yl)methanone]",1 to 5
8,"Cc1nnc(C(=O)N2CC3(CC3)c3[nH]cnc3[C@H]2c2nc3ccccc3s2)o1 [Example 1686, (S)-(4′-(benzo[d]thiazol-2-yl)spiro[cyclopropane-1,7′-imidazo[4,5-c]pyridin]-5′(1′H,4′H,6′H)-yl)(5-methyl-1,3,4-oxadiazol-2-yl)methanone]",0.5 to 1
9,O=C(N1CCc2[nH]cnc2[C@H]1c1nc2ccccc2s1)C(F)(F)C1(O)CCC1 [Example 1687],< 0.5
10,"O=C(N1CCc2[nH]cnc2[C@@H]1c1nc2ccccc2s1)C(F)(F)C1(O)CCC1 [Example 1688, (R)-1-(4-(benzo[d]thiazol-2-yl)-6,7-dihydro-1H-imidazo[4,5-c]pyridin-5(4H)-yl)-2,2-difluoro-2-(1-hydroxycyclobutyl)ethanone]",1 to 5
11,O=C(N1CC(F)C1)N1CCc2[nH]cnc2[C@H]1c1nc2ccccc2s1 [Example 1689],< 0.5
12,"O=C(N1CC(F)C1)N1CCc2[nH]cnc2[C@@H]1c1nc2ccccc2s1 [Example 1690, (R)-(4-(benzo[d]thiazol-2-yl)-6,7-dihydro-1H-imidazo[4,5-c]pyridin-5(4H)-yl)(3-fluoroazetidin-1-yl)methanone]",1 to 5
13,"O=C(N1CCC1)N1CCc2[nH]cnc2[C@H]1c1nc2ccccc2s1 [Example 1691, (S)-azetidin-1-yl(4-(benzo[d]thiazol-2-yl)-6,7-dihydro-1H-imidazo[4,5-c]pyridin-5(4H)-yl)methanone]",< 0.5
14,"O=C(N1CCC1)N1CCc2[nH]cnc2[C@@H]1c1nc2ccccc2s1 [Example 1692, (R)-azetidin-1-yl(4-(benzo[d]thiazol-2-yl)-6,7-dihydro-1H-imidazo[4,5-c]pyridin-5(4H)-yl)methanone]",1 to 5
15,Cc1nc(CN(C)C)oc1C(=O)N1CCc2[nH]cnc2[C@H]1c1nc2ccccc2s1 [Example 1693],0.5 to 1
16,"Cc1nc(CN(C)C)oc1C(=O)N1CCc2[nH]cnc2[C@@H]1c1nc2ccccc2s1 [Example 1694, (R)-(4-(benzo[d]thiazol-2-yl)-6,7-dihydro-1H-imidazo[4,5-c]pyridin-5(4H)-yl)(2-((dimethylamino)methyl)-4-methyloxazol-5-yl)methanone]",> 5

row,Structure (SMILES),AC50 [µM]
1,"CC(C)(O)c1nnc(C(=O)N2CC3(CC3)c3[nH]cnc3[C@@H]2c2nc3ccccc3s2)o1 [Example 1695, (R)-(4′-(benzo[d]thiazol-2-yl)spiro[cyclopropane-1,7′-imidazo[4,5-c]pyridin]-5′(1′H,4′H,6′H)-yl)(5-(2-hydroxypropan-2-yl)-1,3,4-oxadiazol-2-yl)methanone]",> 5
2,"CC(C)(O)c1nnc(C(=O)N2CC3(CC3)c3[nH]cnc3[C@H]2c2nc3ccccc3s2)o1 [Example 1696, (S)-(4′-(benzo[d]thiazol-2-yl)spiro[cyclopropane-1,7′-imidazo[4,5-c]pyridin]-5′(1′H,4′H,6′H)-yl)(5-(2-hydroxypropan-2-yl)-1,3,4-oxadiazol-2-yl)methanone]",0.5 to 1
3,"CC(C)(O)c1nc(C#N)c(C(=O)N2CCc3[nH]cnc3[C@H]2c2nc3ccccc3s2)o1 [Example 1697, (S)-5-(4-(benzo[d]thiazol-2-yl)-4,5,6,7-tetrahydro-1H-imidazo[4,5-c]pyridine-5-carbonyl)-2-(2-hydroxypropan-2-yl)oxazole-4-carbonitrile]",0.5 to 1
4,"CC(C)(O)c1nc(C#N)c(C(=O)N2CCc3[nH]cnc3[C@@H]2c2nc3ccccc3s2)o1 [Example 1698, (R)-5-(4-(benzo[d]thiazol-2-yl)-4,5,6,7-tetrahydro-1H-imidazo[4,5-c]pyridine-5-carbonyl)-2-(2-hydroxypropan-2-yl)oxazole-4-carbonitrile]",> 5
5,"N#Cc1nc(NC2CC2)oc1C(=O)N1CCc2[nH]cnc2[C@H]1c1nc2ccccc2s1 [Example 1699, (S)-5-(4-(benzo[d]thiazol-2-yl)-4,5,6,7-tetrahydro-1H-imidazo[4,5-c]pyridine-5-carbonyl)-2-(cyclopropylamino)oxazole-4-carbonitrile]",1 to 5
6,Cc1nc(CCCN2CCOCC2)oc1C(=O)N1CCc2[nH]cnc2[C@H]1c1nc2ccccc2s1 [Example 1701],< 0.5
7,"Cc1nc(CCCN2CCOCC2)oc1C(=O)N1CCc2[nH]cnc2[C@@H]1c1nc2ccccc2s1 [Example 1702, (R)-(4-(benzo[d]thiazol-2-yl)-6,7-dihydro-1H-imidazo[4,5-c]pyridin-5(4H)-yl)(4-methyl-2-(3-morpholinopropyl)oxazol-5-yl)methanone]",> 5
8,"COCc1ncc(C(=O)N2CCc3[nH]cnc3[C@H]2c2nc3c(F)cccc3s2)s1 [Example 1703, (S)-(4-(4-fluorobenzo[d]thiazol-2-yl)-6,7-dihydro-1H-imidazo[4,5-c]pyridin-5(4H)-yl)(2-(methoxymethyl)thiazol-5-yl)methanone]",0.5 to 1
9,"COCc1ncc(C(=O)N2CCc3[nH]cnc3[C@@H]2c2nc3c(F)cccc3s2)s1 [Example 1704, (R)-(4-(4-fluorobenzo[d]thiazol-2-yl)-6,7-dihydro-1H-imidazo[4,5-c]pyridin-5(4H)-yl)(2-(methoxymethyl)thiazol-5-yl)methanone]",1 to 5
10,"N#Cc1nc(N2CCOCC2)oc1C(=O)N1CCc2[nH]cnc2[C@H]1c1nc2ccccc2s1 [Example 1705, (S)-5-(4-(benzo[d]thiazol-2-yl)-4,5,6,7-tetrahydro-1H-imidazo[4,5-c]pyridine-5-carbonyl)-2-morpholinooxazole-4-carbonitrile]",0.5 to 1
11,"N#Cc1nc(N2CCOCC2)oc1C(=O)N1CCc2[nH]cnc2[C@@H]1c1nc2ccccc2s1 [Example 1706, (R)-5-(4-(benzo[d]thiazol-2-yl)-4,5,6,7-tetrahydro-1H-imidazo[4,5-c]pyridine-5-carbonyl)-2-morpholinooxazole-4-carbonitrile]",> 5
12,O=C(c1oc(N2CCC(F)CC2)nc1C(F)F)N1CCc2[nH]cnc2[C@H]1c1nc2ccccc2s1 [Example 1707],< 0.5
13,"O=C(c1oc(N2CCC(F)CC2)nc1C(F)F)N1CCc2[nH]cnc2[C@@H]1c1nc2ccccc2s1 [Example 1708, (R)-(4-(benzo[d]thiazol-2-yl)-6,7-dihydro-1H-imidazo[4,5-c]pyridin-5(4H)-yl)(4-(difluoromethyl)-2-(4-fluoropiperidin-1-yl)oxazol-5-yl)methanone]",< 0.5
14,"O=C(c1nnc(-c2ncccc2F)o1)N1CCc2[nH]cnc2[C@@H]1c1nc2ccccc2s1 [Example 1709, (R)-(4-(benzo[d]thiazol-2-yl)-6,7-dihydro-1H-imidazo[4,5-c]pyridin-5(4H)-yl)(5-(3-fluoropyridin-2-yl)-1,3,4-oxadiazol-2-yl)methanone]",< 0.5
15,O=C(c1nnc(-c2ncccc2F)o1)N1CCc2[nH]cnc2[C@H]1c1nc2ccccc2s1 [Example 1710],1 to 5
